Data reported in US20230279036A1, “Salts of Remdesivir” (Apotex Inc., priority 2020, published 2023).

Assay: PXRD study of crystalline form stability in a 40° C./75% RH stability chamber
Type: physicochemical
Conditions: capped and uncapped samples, at least one year
Description: Remdesivir napsylate Form APO-I can be characterized by a PXRD diffractogram comprising, among other peaks, characteristic peaks, expressed in degrees 2θ (±0.2°), at 5.1°, 6.5° and 13.1°. Preferably, the PXRD diffractogram further comprises at least three peaks, expressed in degrees 2θ (±0.2°), selected from the group consisting of 4.5°, 9.0°, 10.0°, 11.5°, 13.6°, 15.3°, 16.4°, 17.2°, 20.2° and 24.3°. More preferably, the PXRD diffractogram further comprises peaks, expressed in degrees 2θ (±0.2°), at 4.5°, 9.0°, 10.0°, 11.5°, 13.6°, 15.3°, 16.4°, 17.2°, 20.2° and 24.3°.
Remdesivir tosylate Form APO-I can be characterized by a PXRD diffractogram comprising, among other peaks, characteristic peaks, expressed in degrees […] (±0.2°), at 5.5°, 7.7° and 13.1°. Preferably, the PXRD diffractogram further comprises at least three peaks, expressed in degrees 2θ (±0.2°), selected from the group consisting of 4.5°, 6.5°, 9.1°, 9.8°, 16.0°, 16.6°, 17.1°, 17.5°, 18.4° and 20.0°. More preferably, the PXRD diffractogram further comprises peaks, expressed in degrees 2θ (±0.2°), at 4.5°, 6.5°, 9.1°, 9.8°, 16.0°, 16.6°, 17.1°, 17.5°, 18.4° and 20.0°.
The PXRD diffractogram was recorded on a Bruker D8 Discover powder X-ray diffractometer (Bruker-AXS, Karlsruhe, Germany). […] Raw data was evaluated using the program EVA (Bruker-AXS, Karlsruhe, Germany).

SMILES	change in the crystalline form by PXRD
CCC(CC)COC(=O)C(C)NP(=O)(OCC1OC(C#N)(c2ccc3c(N)ncnn23)C(O)C1O)Oc1ccccc1.O=S(=O)(O)c1ccc2ccccc2c1 (centres unmarked) [remdesivir napsylate Form APO-I, remdesivir naphthalene-2-sulfonate Form APO-I]	no change in the crystalline form occurred
CCC(CC)COC(=O)[C@H](C)N[P@](=O)(OC[C@H]1O[C@@](C#N)(c2ccc3c(N)ncnn23)[C@H](O)[C@@H]1O)Oc1ccccc1.Cc1ccc(S(=O)(=O)O)cc1 [remdesivir tosylate Form APO-1, remdesivir tosylate Form APO-I]	no change in the crystalline form occurred
